Data: patent publication US20030190692A1, “Method for measuring the activity of the blood clotting factor XIIIA” (priority 2000, published 2003)
pIC50: −log10 of the molar value.

Columns and labels:
FXIIIa [1] = details: animal models; Leidy et al. 1990; cited from earlier work
FXIIIa [2] = molecular target: FXIIIa (Homo sapiens, UniProt P00488); experiment: biochemical
Sequence of FXIIIa (Homo sapiens, UniProt P00488) (P00488 39-732 limits assumed): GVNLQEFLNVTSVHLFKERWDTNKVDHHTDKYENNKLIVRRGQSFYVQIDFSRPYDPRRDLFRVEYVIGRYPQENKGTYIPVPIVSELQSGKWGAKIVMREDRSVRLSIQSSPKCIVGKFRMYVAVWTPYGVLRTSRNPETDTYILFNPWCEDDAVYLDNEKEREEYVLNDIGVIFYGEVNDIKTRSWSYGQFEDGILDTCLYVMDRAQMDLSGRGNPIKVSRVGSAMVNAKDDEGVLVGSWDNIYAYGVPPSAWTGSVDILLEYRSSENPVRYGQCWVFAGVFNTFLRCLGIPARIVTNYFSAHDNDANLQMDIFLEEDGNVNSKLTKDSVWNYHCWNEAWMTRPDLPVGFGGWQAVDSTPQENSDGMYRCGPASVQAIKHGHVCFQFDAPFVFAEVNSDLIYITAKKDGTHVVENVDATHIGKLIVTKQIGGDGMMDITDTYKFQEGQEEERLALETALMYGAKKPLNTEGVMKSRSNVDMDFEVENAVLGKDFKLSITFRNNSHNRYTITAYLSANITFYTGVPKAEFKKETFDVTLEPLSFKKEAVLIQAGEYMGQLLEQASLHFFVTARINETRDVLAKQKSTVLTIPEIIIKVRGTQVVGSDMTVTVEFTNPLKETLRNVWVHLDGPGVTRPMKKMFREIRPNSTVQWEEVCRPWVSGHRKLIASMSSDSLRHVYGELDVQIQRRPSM

Structure (SMILES)	Effect on thrombolysis by a plasminogen activator (FXIIIa [1])	pIC50 (FXIIIa [2])
CC(=O)CSc1n[n+]2c(C)csc2s1.[O-][Cl+3]([O-])([O-])[O-] [L722151]	improve the thrombolysis	
O=C(O)CI [iodoacetic acid]		3.83
